In patent US10058570B2 (priority 2007, dated 2018):
Several values for one entry are separate records, joined by “and”; a condition that tells them apart may be missing. Equal entries are not always repeated. Where two headings read alike, the source gives them in different places. Marks after values point to notes of the source that are not given here.

How the values were obtained:
[1] = system: lipopolysaccharide-induced septic shock; format: in vivo, mouse
[2] = system: developing type II collagen arthritis
[3] = system: formalin-induced hind paw licking; format: in vivo, mouse; conditions: for Hind paw licking time (Seconds) (Mean ± SEM): IP, mean (X)
[4] = system: MRMT-1 tumor-induced bone osteolysis; conditions: rat, in vivo
[5] = system: reaction of host lymphocytes to alloantigen; conditions: mouse, in vivo, 10 mg/kg
[6] = system: LPS-induced neutrophilia in lung tissues; conditions: mouse, in vivo
[7] = system: acetic acid-induced writhing responses; conditions: mouse, in vivo
[8] = sodium meta arsenite study, oral QD, 0.075 mg/kg
[9] = arsenic trioxide study, IP 10 mg/kg
[10] = arsenic trioxide study, IP, QD, 10 mg/kg

CC(=O)OCC(=O)[C@@]1(O)[C@H](C)C[C@H]2[C@@H]3CCC4=CC(=O)C=C[C@]4(C)[C@@]3(F)[C@@H](O)C[C@@]21C [Dexamehasone 21-acetate, reference compound]
% Protection ([1]; PO 3 mg/kg, mortality over 3 days after LPS 30 mg/kg IP): (75) %

CN(Cc1cnc2nc(N)nc(N)c2n1)c1ccc(C(=O)N[C@@H](CCC(=O)O)C(=O)O)cc1 [MTX, methotrexate, reference compound]
Inhibition of body weight loss from day zero (adjuvant arthritis; PO 0.1 mg/kg): 91%
Relative liver weights, reduction toward normal (adjuvant arthritis; PO 0.1 mg/kg): 100%
inhibition of ankle diameter AUC increase (adjuvant arthritis; PO 0.1 mg/kg): 96%
inhibition of ankle measurements (dorsal to ventral) (adjuvant arthritis; PO 0.1 mg/kg): 97%
inhibition of final paw weight increase due to arthritis (adjuvant arthritis; PO 0.1 mg/kg): 99%
inhibition of histopathologic bone resorption (adjuvant arthritis; PO 0.1 mg/kg): 100%
inhibition of histopathologic inflammation (adjuvant arthritis; PO 0.1 mg/kg): 99%
inhibition of lymphoid atrophy (adjuvant arthritis; PO 0.1 mg/kg): 50%
inhibition of splenic inflammation (adjuvant arthritis; PO 0.1 mg/kg): 100%
inhibition of ankle diameter increase (adjuvant arthritis; PO 0.1 mg/kg, significant days 8-14): Significant inhibition
Mean body weight decrease over time (due to arthritis) (adjuvant arthritis; PO 0.1 mg/kg, significant days 10-14): inhibited
Relative spleen weights, reduction toward normal (adjuvant arthritis; PO 0.01): 77%
Relative spleen weights, reduction as compared to disease control rats ([2]; rat, in vivo, po, 0.075 mg/kg): 10%
inhibition of ankle diameter ([2]; sodium meta arsenite study, oral 0.075 mg/kg, days 10-17): Significant inhibition
inhibition of body weight loss (due to arthritis) ([2]; sodium meta arsenite study, oral QD days 0-16, 0.075 mg/kg): 96%
Inhibition of ankle diameter (AUC) [2, 8]: 97%
Inhibition of final paw weight [2, 8]: 95%
inhibition of ankle histopathology parameters [2, 8]: 97%
inhibition of knee histopathologic parameters [2, 8]: 100%

CN1CC[C@]23c4c5ccc(O)c4O[C@H]2[C@@H](O)C=C[C@H]3[C@H]1C5 [Morphine, morphine, reference compound]
analgesic effect ([3]; mouse, in vivo): associated with analgesic effect
analgesic effect ([3]; mouse, in vivo, po, 30 mg/kg): significant analgesic effect

O=[As][O-].[Na+] [sodium meta arsenite, sodium meta arsenite (NaAsO2)]
ameliorating tumor-induced osteoclasts and osteolysis [4]: strong positive trend
improving the various aspects of cancer-induced bone damage (histopathology) [4]: positive trend
Inhibition of body weight loss from day 0 (adjuvant arthritis; rat, in vivo): 2-14%
Relative liver weights, reduction (adjuvant arthritis; rat, in vivo): 7-29%
tolerability (adjuvant arthritis; rat, in vivo): well tolerated
Calculated ED50, ankle diameter AUC (adjuvant arthritis; rat, in vivo, po): 10.62 mg/kg
Calculated ED50, ankle measurements (dorsal to ventral) (adjuvant arthritis; rat, in vivo, po): 13.65 mg/kg
Calculated ED50, final paw weight (adjuvant arthritis; rat, in vivo, po): 1421 mg/kg
Calculated ED50, histopathologic bone resorption (adjuvant arthritis; rat, in vivo, po): 9.243 mg/kg
Calculated ED50, histopathologic inflammation (adjuvant arthritis; rat, in vivo, po): 17.25 mg/kg
inhibition of histopathologic inflammation (adjuvant arthritis; rat, in vivo, po): 76%
inhibition of lymphoid atrophy (adjuvant arthritis; rat, in vivo, po): 29%
inhibition of splenic inflammation (adjuvant arthritis; rat, in vivo, po): 32%
inhibition of ankle diameter increase (adjuvant arthritis; rat, in vivo, po, 3 mg/kg): Significant inhibition
Relative spleen weights, reduction toward normal (adjuvant arthritis; rat, in vivo, po, 10 mg/kg): 50%
inhibition of ankle diameter AUC increase (adjuvant arthritis; rat, in vivo, po, 10 mg/kg): 46%
inhibition of ankle diameter increase (adjuvant arthritis; rat, in vivo, po, 10 mg/kg): Significant inhibition
inhibition of ankle measurements (dorsal to ventral) (adjuvant arthritis; rat, in vivo, po, 10 mg/kg): 36%
inhibition of final paw weight increase due to arthritis (adjuvant arthritis; rat, in vivo, po, 10 mg/kg): 28%
inhibition of histopathologic bone resorption (adjuvant arthritis; rat, in vivo, po, 10 mg/kg): 59%
inhibition of histopathologic inflammation (adjuvant arthritis; rat, in vivo, po, 10 mg/kg): 24%
Mean body weight loss over time (adjuvant arthritis; rat, in vivo, po, 30 mg/kg): significantly increased
Relative spleen weights, reduction toward normal (adjuvant arthritis; rat, in vivo, po, 30 mg/kg): 91%
inhibition of ankle diameter AUC increase (adjuvant arthritis; rat, in vivo, po, 30 mg/kg): 83%
inhibition of ankle diameter increase (adjuvant arthritis; rat, in vivo, po, 30 mg/kg): Significant inhibition
inhibition of ankle measurements (dorsal to ventral) (adjuvant arthritis; rat, in vivo, po, 30 mg/kg): 81%
inhibition of final paw weight increase due to arthritis (adjuvant arthritis; rat, in vivo, po, 30 mg/kg): 83%
inhibition of histopathologic bone resorption (adjuvant arthritis; rat, in vivo, po, 30 mg/kg): 81%
inhibition of lymphoid atrophy (adjuvant arthritis; rat, in vivo, po, 30 mg/kg): 39%
inhibition of splenic inflammation (adjuvant arthritis; rat, in vivo, po, 30 mg/kg): 89%
toxicity (based on body weight changes) (adjuvant arthritis; rat, in vivo, po, 30 mg/kg): toxic
IL-1β secretion ([1]; mouse, in vivo): significant inhibition
IL-6 secretion ([1]; mouse, in vivo): inhibition
protection against LPS-induced septic shock ([1]; mouse, in vivo): moderate protection
secretion of KC ([1]; mouse, in vivo, po): no effect
secretion of MCP-1 ([1]; mouse, in vivo, po): no effect
secretion of TNF-α ([1]; mouse, in vivo, po): no effect
immunosuppressive effect in animals treated with alloantigen [5]: slight immunosuppressive effect
inhibition of body weight loss (due to arthritis) ([2]; rat, in vivo): 100%
Relative thymus weights, reduction as compared to disease controls ([2]; rat, in vivo, 1 mg/kg): 20%
Calculated ED50 value, ankle diameter (AUC) ([2]; rat, in vivo, po): 8.499 mg/kg
Calculated ED50 value, ankle histopathology ([2]; rat, in vivo, po): 7.080 mg/kg
Calculated ED50 value, body weight loss ([2]; rat, in vivo, po): 1.929 mg/kg
Calculated ED50 value, final paw weight ([2]; rat, in vivo, po): 7.116 mg/kg
Calculated ED50 value, knee histopathology ([2]; rat, in vivo, po): 7.924 mg/kg
Inhibition of ankle diameter (AUC) ([2]; rat, in vivo, po, 10 mg/kg): 73%
Inhibition of ankle diameter AUC ([2]; rat, in vivo, po, 10 mg/kg): 66%
Inhibition of final paw weight ([2]; rat, in vivo, po, 10 mg/kg): 83% and 69%
Relative liver weights, increase above arthritic controls ([2]; rat, in vivo, po, 10 mg/kg): 14%
Relative liver weights, increase over disease controls ([2]; rat, in vivo, po, 10 mg/kg): 17%
Relative spleen weights, reduction as compared to disease control rats ([2]; rat, in vivo, po, 10 mg/kg): 10%
inhibition of ankle diameter ([2]; rat, in vivo, po, 10 mg/kg): Significant inhibition
inhibition of ankle histopathology parameters ([2]; rat, in vivo, po, 10 mg/kg): 85%
inhibition of body weight loss ([2]; rat, in vivo, po, 10 mg/kg): 85%
inhibition of decrease in ankle diameter ([2]; rat, in vivo, po, 10 mg/kg): Significant inhibition
inhibition of knee histopathologic parameters ([2]; rat, in vivo, po, 10 mg/kg): 87%
KC in lavage fluid [6]: significant reduction
TNF-α in lavage fluid [6]: significant suppression
cell counts in lavage fluid [6]: not associated with any significant changes
monocyte count in lavage fluid [6]: significant decrease
neutrophil (differential) count in lavage fluid [6]: significant decrease
secretion of 1L-1β, Il-6 or MCP-1 observed in brachoaveolar lavage fluid [6]: At no concentration
white blood cell (total) count in lavage fluid [6]: significant decrease
analgesic effect [7]: no analgesic effect
analgesic activity ([7]; po, 10 mg/kg): significant analgesic activity
number of writhing responses (average) ([7]; po, 10 mg/kg): 7 writhing events
analgesic activity ([3]; mouse, in vivo): significant analgesic activity

arsenic trioxide (As2O3)
Relative thymus weights ([2]; arsenic trioxide study, 10 mg/kg): reduced below arthritic controls
Relative liver weights, increase above arthritic controls ([2]; arsenic trioxide study, IP 1 mg/kg): 6%
Relative liver weights, increase above arthritic controls [2, 9]: 10%
Relative spleen weights, reduction as compared to disease control rats [2, 9]: 21%
inhibition of decrease in ankle diameter ([2]; arsenic trioxide study, IP 10 mg/kg, days 10-17): Significant inhibition
Inhibition of ankle diameter AUC [2, 10]: 80%
Inhibition of final paw weight [2, 10]: 71%
inhibition of body weight loss [2, 10]: 55%
Hind paw licking time (Seconds) (Mean ± SEM) ([3]; 1 mg/kg, 0-5 minutes after formalin): 74.6 s
Hind paw licking time (Seconds) (Mean ± SEM) ([3]; 1 mg/kg, 5-10 minutes after formalin): 2.6* Seconds
Hind paw licking time (Seconds) (Mean ± SEM) ([3]; 1 mg/kg, 10-15 minutes after formalin): 15.6* Seconds
Hind paw licking time (Seconds) (Mean ± SEM) ([3]; 1 mg/kg, 15-20 minutes after formalin): 40.0 s
Hind paw licking time (Seconds) (Mean ± SEM) ([3]; 1 mg/kg, 20-25 minutes after formalin): 57.1 s
Hind paw licking time (Seconds) (Mean ± SEM) ([3]; 1 mg/kg, 25-30 minutes after formalin): 53.5 s
Hind paw licking time (Seconds) (Mean ± SEM) ([3]; 1 mg/kg, 30-35 minutes after formalin): 30.0 s
Hind paw licking time (Seconds) (Mean ± SEM) ([3]; 10 mg/kg, 0-5 minutes after formalin): 9.0* Seconds
Hind paw licking time (Seconds) (Mean ± SEM) ([3]; 10 mg/kg, 5-10 minutes after formalin): 0.3* Seconds
Hind paw licking time (Seconds) (Mean ± SEM) ([3]; 10 mg/kg, 10-15 minutes after formalin): 0.0* Seconds
Hind paw licking time (Seconds) (Mean ± SEM) ([3]; 10 mg/kg, 15-20 minutes after formalin): 0.0* Seconds
Hind paw licking time (Seconds) (Mean ± SEM) ([3]; 10 mg/kg, 20-25 minutes after formalin): 0.0* Seconds
Hind paw licking time (Seconds) (Mean ± SEM) ([3]; 10 mg/kg, 25-30 minutes after formalin): 0.0* Seconds
Hind paw licking time (Seconds) (Mean ± SEM) ([3]; 10 mg/kg, 30-35 minutes after formalin): 0.0 s
inhibition of the licking response to formalin challenge ([3]; intraperitoneal, 10 mg/kg, intervals 0-5, 5-10, 10-15, 15-20, 20-25 and 25-30 minutes): significant inhibition
response (inhibition of licking) to formalin challenge ([3]; intraperitoneal, lower dose 1 mg/kg): limited to the intervals of 5-10 and 10-15 minutes after challenge
